The record followed here is patent US5344930A, “Fluorine and phosphorous-containing amphiphilic molecules with surfactant properties” (Alliance Pharmaceutical Corp., priority 1993, dated 1994).

Series [1] relates to mice. Briefly: Injection into the tail vein of mice (deaths, growth). The series is classed as in vivo. The note with it: 500 μl in NaCl 9%, 10 mice of 20-25g, observed for 35 days.
Series [2] can be described thus: Surface tension of aqueous solutions at 20° C. The series is classed as physicochemical. The note with it: (+0.3). The protocol:
(§1) The strong surface activity of the compounds encompassed by this invention is illustrated in particular by the strong lowering of the surface tension (γs) they cause when added to water, as shown by the examples of surface tensions (measured at 20° C. and expressed in milliNewton.meter^-1) and calculated spreading coefficients collected in the Table below: […]

The nature of series [3]: Interfacial tension and spreading coefficient between water and perfluorodecalin. Type of series: physicochemical. The note with it: for γi (interfacial tension between water and perfluorodecalin): (+0.3), 56 mNm^-1 in the absence of surfactant; for Spreading Coef.: -56 mNm^-1 in the absence of surfactant. The protocol: as §1
A short description of series [4]: Fluorocarbon (F-decalin) emulsions: average particle size and stability. The series is classed as physicochemical. The protocol:
^a Emulsions prepared by microfluidization.
Additional stable perfluorodecalin (50% w/v) emulsions based on the perfluoroalkylated phosphatidylcholines 11 or 12 (2 or 3% w/v) as the sole surfactant have been prepared by sonication.
^a Emulsions prepared by sonication
^b The emulsions are stored at 25° C.
^c The emulsions are stored at 50° C.
^a All the emulsions are prepared by microfluidization and stored at
The new perfluoroalkylated surfactants were solubilized or dispersed into water. Then the fluorocarbon was added under agitation. Any emulsification method like sonication can be used but mechanical procedures such as microfluidization or high pressure homogenization are preferred. The emulsion obtained can be used as an O2 carrier. The significant stabilization effect which can be obtained by incorporating the new F-alkyl surfactants is illustrated for various emulsion formulations (see Tables above).

The nature of series [5]: Growth and viability of lymphoblastoid cell cultures of the Namalva strain. Type of series: cell-based. The note with it: human, namalva lymphoblastoid cells, control = 100%; for activity: read-out: Cell Culture Growth %; for viability: read-out: Cell Culture Viability %.
The mark [6] stands for this setting: Table I, 3% compound (Ref.: 3% EYP), 50% w/v F-decalin, 1 month at 50° C.
Setting [7] is: Table I, 3% compound (Ref.: 3% EYP), 50% w/v F-decalin, microfluidization.
Setting [8] is: Table III, 1% compound + 2% EYP (Ref.: 3% EYP), 20% w/v F-decalin, 1 month at 25° C.
Where [9] appears, read: Table III, 1% compound + 2% EYP (Ref.: 3% EYP), 20% w/v F-decalin, sonication.
[10] abbreviates: Table III, 1% compound + 2% EYP (Ref.: 3% EYP), 20% w/v F-decalin, sonication, stored at 25° C.
The mark [11] stands for this setting: Table IV, 0.66% compound + 1.33% EYP, 100% w/v F-decalin, stored at 50° C.

Read-outs that look alike come from different tables or passages of the source.

Regarding `COCCOP(=O)(OCCOC)OCC(COC(=O)CCCCCCCCCCC(F)(F)C(F)(F)C(F)(F)C(F)(F)C(F)(F)C(F)(F)F)OC(=O)CCCCCCCCCCC(F)(F)C(F)(F)C(F)(F)C(F)(F)C(F)(F)C(F)(F)F` (racemic) [Compound 14, [1',2'-di [(11-F-hexyl)undecanoyl]rac-glyceryl] [di (2'-methoxy-ethyl)] phosphate], in series [1], the “concentration of which injection caused no deaths and did not perturb the normal growth” value is 10000 µg/mL.

In the case of `C[N+](C)(C)CCOP(=O)([O-])OCCCCCCCCCCCC(F)(F)C(F)(F)C(F)(F)C(F)(F)C(F)(F)C(F)(F)C(F)(F)C(F)(F)F` [Compound 6, [11-(F-octyl)undecyl] [2'-N,N,N trimethylamino ethyl] phosphate], the “γs (surface tension)” value in series [2] (1 g/l in water) was found to be 30.0 mNm^-1. For the same compound, in series [3] (1 g/l in water), the “γi (interfacial tension between water and perfluorodecalin)” value was 9.4 mNm^-1; the “Spreading Coef.” value is -16.5 mNm^-1. Besides, in series [4] (setting [6]), the “Relative Increase % (particle size)” value stood at 44%. In series [4] (setting [7]), the “Average Particle Size After 1 month at 50° C.” value was found to be 0.36 μm and the “Average Particle Size After Preparation” value is on record as 0.25 μm. Besides, the “Relative Increase % (particle size)” value in series [4] (setting [8]) worked out at 110%. Besides, the “Average Particle Size After Preparation” value in series [4] (setting [9]) is 0.17 μm. Moreover, in series [4] (setting [10]), the “Average Particle Size After 1 month” value is reported as 0.36 μm. The “concentration of which injection caused no deaths and did not perturb the normal growth” value in series [1] turned out to be 1000 µg/mL.

With `C[N+](C)(C)CCOP(=O)([O-])OCCC(F)(F)C(F)(F)C(F)(F)C(F)(F)C(F)(F)C(F)(F)C(F)(F)C(F)(F)F` [Compound 5, [2-(F-octyl)ethyl] [2'-N,N,N trimethylamino ethyl] phosphate], in series [2] (1 g/l in water), the “γs (surface tension)” value was 23.0 mNm^-1. Besides, in series [5] (10 g/l in 9% of NaCl), the activity is 96%. The viability – broadly, a read-out of living cells in per cent, often relative to untreated cells – in series [5] (10 g/l in 9% of NaCl) was determined as 102%. Also, the “γi (interfacial tension between water and perfluorodecalin)” value in series [3] (1 g/l in water) was 4.5 mNm^-1. Besides, the “Spreading Coef.” value in series [3] (1 g/l in water) was -4.6 mNm^-1. Moreover, in series [4] (50% w/v F-decalin emulsions, 1% surfactant where stated), the “emulsion stability (in words)” value was “remain stable at 50 °C for at least one month”. Further, the “Average Particle Size After Preparation” value in series [4] (Table I, 1% compound (Ref.: 1% EYP), 50% w/v F-decalin, microfluidization) amounted to 0.48 μm; in series [4] (setting [7]) it was 0.20 μm; in series [4] (setting [9]) it was 0.15 μm; in series [4] (Table IV, 0.66% compound + 1.33% EYP (Ref.: 2% EYP), 100% w/v F-decalin, microfluidization) it was 0.6 μm. The “Relative Increase % (particle size)” value in series [4] (Table I, 1% compound, 50% w/v F-decalin, 1 month at 50° C.) is 14%; in series [4] (setting [6]), 50%; in series [4] (setting [8]) it was 100%; in series [4] (setting [11]), 125%. Further, the “Average Particle Size After 1 month at 50° C.” value in series [4] (Table I, 1% compound, 50% w/v F-decalin, microfluidization) is 0.55 μm; in series [4] (setting [7]), 0.30 μm. Moreover, the “Average Particle Size After 1 month” value in series [4] (setting [10]) worked out at 0.29 μm. The “Average Particle size After 3 months” value in series [4] (Table IV, 0.66% compound + 1.33% EYP (Ref.: 2% EYP), 100% w/v F-decalin, stored at 50° C.) was 1.1 μm. In addition, the “Average Particle size After 8 months” value in series [4] (setting [11]) was 1.35 μm. The “concentration of which injection caused no deaths and did not perturb the normal growth” value in series [1] was 1000 µg/mL.

On to `O=P(OCCCCCCCCCCCC(F)(F)C(F)(F)C(F)(F)C(F)(F)C(F)(F)C(F)(F)C(F)(F)C(F)(F)F)(N1CCOCC1)N1CCOCC1` [Compound 4, [11-(F-octyl)undecyl] dimorpholinohosphoramidate], for which the “γs (surface tension)” value in series [2] (0.1 g/l in water) is listed as 22.5 mNm^-1. For the same compound, in series [3] (0.1 g/l in water), the “γi (interfacial tension between water and perfluorodecalin)” value came out at 1.4 mNm^-1; the “Spreading Coef.” value is listed as -1.0 mNm^-1. In series [4] (setting [8]), the “Relative Increase % (particle size)” value was 50%. Besides, the “Average Particle Size After Preparation” value in series [4] (setting [9]) stood at 0.26 μm. Also, the “Average Particle Size After 1 month” value in series [4] (setting [10]) is on record as 0.39 μm.

Take `O=P(OCCC(F)(F)C(F)(F)C(F)(F)C(F)(F)C(F)(F)C(F)(F)F)(N1CCOCC1)N1CCOCC1` [Compound 1, [2-(F-hexyl)ethyl] dimorpholinophosphoramidate]: in series [2] (1 g/l in water), the “γs (surface tension)” value is given as 22.5 mNm^-1. Also, in series [3] (1 g/l in water), the “γi (interfacial tension between water and perfluorodecalin)” value is 2.0 mNm^-1; the “Spreading Coef.” value is on record as -1.6 mNm^-1.

With `C[N+](C)(C)CCOP(=O)([O-])OCC(COC(=O)CCCCCCCCCCC(F)(F)C(F)(F)C(F)(F)C(F)(F)F)OC(=O)CCCCCCCCCCC(F)(F)C(F)(F)C(F)(F)C(F)(F)F` (racemic) [Compound 11, 1,2-di [(11-F-butyl)undecaoyl] 3-[2'-(N,N,N-trimethylamino)ethylphosphoryl] rac-glycerol], in series [5] (1 g/l in 9% of NaCl), the activity came to 60% and the viability was found to be 83%. In series [4] (Table III, 0.66% compound + 1.33% EYP (Ref.: 2% EYP), 50% w/v F-decalin, 1 month at 50° C.), the “Relative Increase % (particle size)” value is given as 35%. Further, the “Average Particle Size After Preparation” value in series [4] (Table III, 0.66% compound + 1.33% EYP (Ref.: 2% EYP), 50% w/v F-decalin, sonication) was determined as 0.37 μm. In addition, in series [4] (Table III, 0.66% compound + 1.33% EYP (Ref.: 2% EYP), 50% w/v F-decalin, sonication, stored at 50° C.), the “Average Particle Size After 1 month” value is on record as 0.50 μm. Also, the “increase in average particle size” value in series [4] (perfluorodecalin (50% w/v) emulsions, 2 or 3% w/v sole surfactant, sonication) stood at 10%. For the same compound, in series [1], the “concentration of which injection caused no deaths and did not perturb the normal growth” value worked out at 100000 µg/mL.

For `C[N+](C)(C)CCOP(=O)([O-])OCC(COC(=O)CCCCCCCCCCC(F)(F)C(F)(F)C(F)(F)C(F)(F)C(F)(F)C(F)(F)F)OC(=O)CCCCCCCCCCC(F)(F)C(F)(F)C(F)(F)C(F)(F)C(F)(F)C(F)(F)F` (racemic) [Compound 10, 1,2-di[(11-F-hexyl)undecaoyl] 3-[2'-(N,N,N-trimethylamino)ethyl] phosphoryl rac-glycerol], in series [5] (1 g/l in 9% of NaCl), the activity amounted to 99% and the viability stood at 95%. Also, the “concentration of which injection caused no deaths and did not perturb the normal growth” value in series [1] was 30000 µg/mL.

As for `C[N+](C)(C)CCOP(=O)([O-])OCC(COCCCCCCCCCCCC(F)(F)C(F)(F)C(F)(F)C(F)(F)F)OCCCCCCCCCCCC(F)(F)C(F)(F)C(F)(F)C(F)(F)F` (racemic) [Compound 13, 1,2-di [(11-F-butyl)undecyl] 3-[2'-(N,N,N-trimethylamino)ethylphosphoryl] rac-glycerol], in series [5] (1 g/l in 9% of NaCl), the activity is 55% and the viability was 91%. Also, the “concentration of which injection caused no deaths and did not perturb the normal growth” value in series [1] was determined as 60000 µg/mL.

Take `O=P(OCCC(F)(F)C(F)(F)C(F)(F)C(F)(F)C(F)(F)C(F)(F)C(F)(F)C(F)(F)F)(N1CCOCC1)N1CCOCC1` [Compound 2, [2-(F-octyl)ethyl] dimorpholinohosphoramidate]: the “γs (surface tension)” value in series [2] (1 g/l in water) was 22.5 mNm^-1. For the same compound, in series [5] (1 g/l in 9% of NaCl), the activity was determined as 67% and the viability turned out to be 106%. Also, in series [3] (1 g/l in water), the “γi (interfacial tension between water and perfluorodecalin)” value turned out to be 1.0 mNm^-1; the “Spreading Coef.” value was -0.6 mNm^-1.

As to `O=P(OCCCCCCCCCCCC(F)(F)C(F)(F)C(F)(F)C(F)(F)C(F)(F)C(F)(F)F)(N1CCOCC1)N1CCOCC1` [Compound 3, [11-(F-hexyl)undecyl] dimorpholinohosphoramidate], in series [2] (0.1 g/l in water), the “γs (surface tension)” value was 24.4 mNm^-1. In series [3] (0.1 g/l in water), the “γi (interfacial tension between water and perfluorodecalin)” value turned out to be 7.5 mNm^-1; the “Spreading Coef.” value is -0.9 mNm^-1. Also, the “Relative Increase % (particle size)” value in series [4] (setting [8]) is recorded as 50%. Besides, the “Average Particle Size After Preparation” value in series [4] (setting [9]) is listed as 0.26 μm. The “Average Particle Size After 1 month” value in series [4] (setting [10]) is listed as 0.39 μm.
